Legend:
[1] = test system: Wnt/β-catenin pathway; conditions: positive control, known from Zhang et al. 2007; cited from earlier work
[2] = test system: human melanoma cells; assay: Proliferation of human melanoma cells measured by Renilla luciferase activity; type: cell-based; conditions: flunarizine 1 μM alone, FIG. 5
Experimental: (§1) Wnt3a conditioned media was collected from sub-confluent melanoma cell lines, and this media was tested for its ability to activate Wnt/β-catenin signaling in UACC 1273 melanoma cells that were stably transduced with a Wnt/β-catenin-responsive firefly luciferase reporter and a constitutive Renilla luciferase gene used for normalization (Cignal TCF/LEF transcriptional reporter construct; SABiosciences, Frederick, Md.). Conditioned media was spun down to clear cell debris and then incubated with reporter cells overnight. Activation of the Wnt/β-catenin reporter was measured using a DLR assay kit (Promega; Madison, Wis.).
(§2) Flunarizine and QS11 were solubilized in dimethyl-sulfoxide (DMSO) vehicle, which was used as a control (vol/vol) for the described experiments. Drug incubations were 24-48 hours in duration.

[3] = test system: Wnt/β-catenin pathway; assay: Wnt/β-catenin-responsive (TCF/LEF) luciferase reporter assay in melanoma cells; type: cell-based, human
Experimental: as §1, §2
A TCF/LEF transcriptional reporter gene cell line used to monitor the activation of the Wnt signal transduction pathway was utilized in a high throughput screen of a library of chemical compounds to identify compounds that synergize with lithium in activating the Wnt/β-catenin pathway.

[4] = test system: GSK-3; conditions: cited from earlier work; for selectivity for GSK-3: literature values
[5] = test system: B16 melanoma cells; assay: Cell proliferation assay, B16 murine melanoma cells; type: cell-based; conditions: NaCl 20 mM, negative control, FIG. 3B
Experimental: For cell counts by hematocytometer, cells were plated at a uniform density (usually between 10,000 to 25,000 cells per well) in a 12 or 24 well tissue culture plate in the appropriate media supplemented with 2% FBS. Cells were then incubated at 37° C. at 5% CO2 for three to seven days based on individual cell doubling time. At the end of the timecourse, cells were trypsinized, resuspended in the appropriate media, and counted using a standard hematocytometer. Dead cells were identified by 0.4% Trypan Blue stain. Cell proliferation experiments were performed with a minimum of six biologic replicates. […] For relative cell proliferation assays of B16:GFP cells incubated with lithium chloride or sodium chloride, cell proliferation was measured by relative firefly luciferase units (Promega; Madison, Wis.).

OC[C@H](Cc1ccccc1)Nc1nc(Oc2ccc3c(c2)CCC3)nc2c1ncn2Cc1ccc(-c2ccccc2)cc1 [QS11]
synergy with Wnt-3a in activating the Wnt pathway [1]: act synergistically with Wnt-3a to activate the Wnt pathway

Fc1ccc(C(c2ccc(F)cc2)N2CCN(CC=Cc3ccccc3)CC2)cc1 [flunarizine, 1-[bis(4-fluorophenyl)methyl]-4-cinnamyl-piperazine]
proliferation of human melanoma cells (Renilla luciferase activity) [2]: inhibited | activation of Wnt-responsive reporter together with Wnt-3a conditioned media ([3]; flunarizine 1 μM, human melanoma cells, FIG. 6): synergizes with Wnt-3a conditioned media to activate a Wnt-responsive reporter | enhancement of lithium-induced activation of the TCF/LEF reporter gene ([3]; flunarizine with lithium, FIG. 4): ~100 fold

O=[N+]([O-])c1ccc(NCCNc2ncc(-c3ncc[nH]3)c(-c3ccc(Cl)cc3Cl)n2)nc1 [CHIR-837]
selectivity for GSK-3 [4]: > 5,000 fold

[Cl-].[Na+] [NaCl, Sodium chloride]
effect on B16 melanoma cell growth [5]: no effect on cell growth
